Experiments:
[1] = tested on: Chinese hamster V79 lung fibroblasts; assay: Radiation survival of hypoxic V79 cells (metabolism-mediated oxygen depletion), clonogenic assay, SER; type: cell-based; conditions: hypoxic; for SER: 1% surviving fraction level
Protocol: (§1) Chinese hamster V79 lung fibroblasts were cultured in F12 medium supplemented with 10% fetal calf serum and antibiotics. […] The assay system was specifically designed to evaluate radiation sensitivity of cells exposed to radiation under both aerobic and hypoxic conditions (Mitchell et al., Radiat. Res., 96, 422-428 (1983); Russo et al., Radiat. Res., 103, 232-239 (1985); and DeGraff et al., Int. J. Radiat. Oncol. Biol. Phys., 16, 1021-1024 (1989)).
(§2) When cultured cells were exposed to DEA/NO in subsequent examples, DEA/NO in F12 medium with 10 mM HEPES buffer, pH 7.0, was used. […] Control cells in subsequent examples were exposed to 0.02N NaOH, instead of DEA/NO.
The induction of hypoxia in dense cell suspensions by metabolism-mediated oxygen depletion was carried out as described by Mitchell et al. (supra) and Phillips et al. (Int. J. Radiat. Oncol. Biol. Phys., 12, 1627-1635 (1986)). Briefly, stock cultures of exponentially growing Chinese hamster V79 lung fibroblasts in 850 cm^2 roller bottles were trypsinized, rinsed with medium, and counted. Samples of 10^8 cells were then placed in 15 ml centrifuge tubes, centrifuged at 1,000 rpm for 5 min at 25° C., and rinsed once with medium or medium containing DEA/NO (final concentrations ranging from 0.1-2.0 mM), nitrite, diethylamine, or DEA/NO that had been allowed to decompose in full medium overnight at 37° C.
The cell suspension was taken up into a 3 ml glass syringe with a 18 gauge spinal needle. Air bubbles were removed, and a 25 gauge needle was fitted onto the syringe. The syringe was rotated by hand at room temperature for 20 min to allow for cellular metabolic oxygen consumption. The syringe was then placed in a lucite block and irradiated. After a given dose of radiation, 1-3 drops of cell suspension were discarded, and 1-2 drops were collected in tubes containing drug-free medium. In this manner an entire hypoxic survival curve for a given treatment condition can be obtained from a single syringe.
Hypoxic Chinese hamster V79 lung fibroblasts of Example 2 were irradiated at room temperature with 4 MeV photons from a linear accelerator at a dose rate of 1.5 Gy/min. Full electron equilibrium was ensured for all irradiations.
(§3) Following irradiation, the various cell suspensions were pipetted, counted, diluted, and plated for macroscopic colony formation. Each dose determination was plated in triplicate and experiments were repeated a minimum of two times. Plates were incubated for seven days, after which colonies were fixed with methanol/acetic acid (3:1), stained with crystal violet, and counted. Colonies containing >50 cells were scored and graphed as FIGS. 1-3. Error bars in the graphs represent the standard deviation of the mean and are shown when larger than the symbol used to designate a data point. Survival curve data were fitted using a linear quadratic model of Albright (Radiat. Res., 112, 331-340 (1987)), and the survival curves shown in the figures represent the best fit curves for the experimental data points. Sensitizer enhancement ratios (SER) were calculated by dividing the radiation dose for control hypoxic conditions by the radiation dose for various agents under hypoxic conditions at the 1% surviving fraction level.
(§4) Radiation survival curves for V79 cells exposed to varying concentrations of DEA/NO and various DEA/NO decomposition products under hypoxic conditions (metabolic hypoxia induction) are shown in FIG. 1A, which is a graph of the surviving fraction versus dose (Gy).

[2] = tested on: Chinese hamster V79 lung fibroblasts; assay: Cytotoxicity of the agents alone to V79 cells, clonogenic assay; conditions: no radiation
Protocol: as §1, §2
as §4, with “(Gy). Lines in FIG. 1A represent control (.circle-solid.) and 0.1 mM (Δ), 0.5 mM (.largecircle.), 1.0 mM (.quadrature.), and 2.0 mM (.box-solid.) DEA/NO. Survival curves were corrected for drug cytotoxicity as appropriate.” for “(Gy).”
DEA/NO (2.0 mM) was allowed to decompose to liberate NO in medium maintained at 37° C. overnight in a flask open to the air for use as an additional control. The medium containing the DEA/NO decomposition products was then used to evaluate possible effects on radiosensitization.

[3] = tested on: Chinese hamster V79 lung fibroblasts; assay: Radiation survival of aerobic V79 cells, clonogenic assay; type: cell-based
Protocol: as §1, §2, §3

[4] = tested on: human MCF7 breast cancer cells; assay: Chemosensitization of human breast cancer cells to melphalan or thiotepa, clonogenic assay; conditions: 1 hr, 37° C.; for DEA/NO enhancement ratio at the 10% surviving fraction level: 1 mM DEA/NO
Protocol: FIG. 10 is a graph of surviving fraction versus concentration (μg/ml) of melphalan in the absence or presence of 1 mMDEA/NO or released DEA/NO showing the survival curves for human MCF7 breast cancer cells exposed to melphalan in the absence or presence of 1 mM DEA/NO or released DEA/NO.
FIG. 11 is a graph of surviving fraction versus concentration (μg/ml) of thiotepa in the absence or presence of 1 mM DEA/NO or released DEA/NO showing the survival curves for human MCF7 breast cancer cells exposed to thiotepa in the absence or presence of 1 mM DEA/NO or released DEA/NO.
as §1
Human breast cancer cells in log phase were exposed for 1 hr at 37° C. to varying concentrations of melphalan or thiotepa in the absence or presence of 1 mM DEA/NO or released DEA/NO. […] Cytotoxicity was evaluated using the clonogenic assay of Example 2.
FIGS. 10 and 11 are graphs of surviving fraction versus concentration (μg/ml) of melphalan and thiotepa, respectively.

[5] = tested on: Female C3H mice; assay: Protection of mice against melphalan toxicity; type: in vivo; conditions: 70 mg/kg DEA/NO, i.p.
Protocol: Female C3H mice were injected intraperitoneally with varying doses of melphalan alone or melphalan with 70 mg/kg DEA/NO. The methods employed were adaptations of the methods used in Examples 9 and 11.
FIG. 16 is a graph of % survival of animals versus does of melphalan (mg/kg) showing the chemotherapy survival curves for mice exposed to melphalan in the absence or presence of DEA/NO. […] DEA/NO provided approximately a 1.2 protection factor at the 50% survival level.

[6] = tested on: Chinese hamster V79 lung fibroblasts; assay: Radiation survival of hypoxic V79 cells (metabolism-mediated oxygen depletion), clonogenic assay, SER; type: cell-based; conditions: 0.05 mM, 1% surviving fraction level
[7] = tested on: C3H mice; assay: Protection of mice from whole body irradiation; type: in vivo

## CCN(CC)/[N+]([O-])=N/[O-].[Na+] [DEA/NO]
[1]; 0.1 mM
  extent of radiosensitization: modest
[1]; 0.10 mM, ± SD
  SER: 1.1 ± 0.06
[1]; 0.50 mM, ± SD
  SER: 2.1 ± 0.40
[1]; 1.00 mM
  SER: 2.4
[1]; 2.0 mM
  effectiveness in eliminating radiation resistance due to hypoxia: just as effective as oxygen in eliminating radiation resistance due to hypoxia
[1]; 2.00 mM, ± SD
  SER: 2.9±0.4
[1]; 0.5 and 1.0 mM
  extent of radiosensitization: significant enhancement was observed
[2]; 2 mM
  cytotoxicity of treatment alone: minimal cytotoxicity
[2]; 0.1-1.0 mM
  cytotoxicity of treatment alone: not cytotoxic
[3]; 2.0 mM
  enhancement of aerobic radiosensitivity at the 1% survival level: 1.3
[3]; 0.5 and 1.0 mM
  effect on aerobic radiosensitivity: had no effect on aerobic radiosensitivity
[4]; melphalan and thiotepa, 1 mM
  enhancement of chemosensitivity / cytotoxicity: significantly enhanced the chemosensitivity of human breast cancer cells to melphalan and thiotepa
[4]; melphalan
  DEA/NO enhancement ratio at the 10% surviving fraction level: 3.3
[4]; thiotepa
  DEA/NO enhancement ratio at the 10% surviving fraction level: 1.3
[5]
  protection against the effects of melphalan: protected the mice against the effects of melphalan
[5]; varying melphalan doses
  protection factor at the 50% survival level: ~1.2
[6]
  SER: 1.0
[7]; 700 cGy, 80 mg/kg i.p. 10 min before
  Percent survival of mice at 30 days: 100%
[7]; 700 cGy, 80 mg/kg i.p. 30 min before
  Percent survival of mice at 30 days: 100%
[7]; 800 cGy, 80 mg/kg i.p. 10 min before
  Percent survival of mice at 30 days: 100%
[7]; 800 cGy, 80 mg/kg i.p. 30 min before
  Percent survival of mice at 30 days: 90%
[7]; 900 cGy, 80 mg/kg i.p. 10 min before
  Percent survival of mice at 30 days: 77%
[7]; 900 cGy, 80 mg/kg i.p. 30 min before
  Percent survival of mice at 30 days: 80%
[7]; 1000 cGy, 80 mg/kg i.p. 10 min before
  Percent survival of mice at 30 days: 44%
[7]; 1000 cGy, 80 mg/kg i.p. 30 min before
  Percent survival of mice at 30 days: 10%

— US5650442A (priority 1994, dated 1997)
